According to paper PMC12113668, “Discovery of Potential Scaffolds for Methionine Adenosyltransferase 2A (MAT2A) Inhibitors: Virtual Screening, Synthesis, and Biological Evaluation” (Molecules, 2025):
Where “and” joins values, the source holds several entries; their conditions need not be identical. Equal entries are not always repeated. Entries after “also recorded” stand apart in the source; their conditions may differ.

Legend:
MAT2A = MAT2A (Homo sapiens, UniProt P31153); experiment: MAT2A enzymatic assay (colorimetric Phosphate Assay Kit-PiColorLock); format: biochemical; conditions: for Maximum Inhibition (%): MAT2A enzymatic assay; for IC50: mean ± SD, at least three independent experiments, NA: no activity at 10 μM; for MAT2A inhibitory activity (in words): up to 10 μM
Chain of MAT2A (P31153 whole entry): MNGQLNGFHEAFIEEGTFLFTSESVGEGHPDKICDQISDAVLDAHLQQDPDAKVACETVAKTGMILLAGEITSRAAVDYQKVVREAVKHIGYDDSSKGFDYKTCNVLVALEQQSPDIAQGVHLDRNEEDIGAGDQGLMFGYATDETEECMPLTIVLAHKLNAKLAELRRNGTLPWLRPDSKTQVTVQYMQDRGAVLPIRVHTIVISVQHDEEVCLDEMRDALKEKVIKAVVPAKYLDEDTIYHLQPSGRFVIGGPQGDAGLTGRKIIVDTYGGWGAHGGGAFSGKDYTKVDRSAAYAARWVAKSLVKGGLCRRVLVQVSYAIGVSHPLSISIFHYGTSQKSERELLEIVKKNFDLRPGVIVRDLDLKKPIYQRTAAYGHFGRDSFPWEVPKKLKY
Protocol: The inhibition of MAT2A by each compound was determined using the colorimetric Phosphate Assay Kit-PiColorLock (#ab270004) as described previously. […] Assay measurements were performed in 1X buffer containing 50 mM Tris, 50 mM KCl, 10 mM MgCl2, and 0.05% Brij-35 (pH 8.0) in a final assay volume of 5 μL. A total of 2.5 μL of MAT2A protein with a final concentration of 20 μg/mL was added to each well of a 384 well assay plate containing 100 nL of each concentration of test compound dissolved in DMSO and incubated for 30 min at room temperature. ATP (100 μM final concentration) and L-Met (100 μM final concentration) were subsequently added and incubated for 30 min at room temperature. Then 20 μL of the phosphate assay kit substrate was added to each well, incubated at room temperature for 30 min, and then the absorbance was measured at 620 nm on a plate reader.

[1] = Cytotoxicity of new compounds in HEK293A; format: cell-based; conditions: human, HEK293A cells
MTAP−/− HCT116 cells = experiment: Cellular antiproliferation assay (CCK8), MTAP-deleted HCT116; format: cell-based; conditions: Homo sapiens, HCT-116, 72 h, mean ± SD
Protocol: Cell viability assays were performed using Cell Counting Kit-8 (CCK8). Briefly, the MTAP-deleted HCT116 cells (Horizon) were plated at 1000 cells per well in 96-well plates in RPMI-1640 medium with 10% FBS and 1% PS, and then incubated at 37 °C under a 5% CO2 atmosphere overnight. The stock solutions were serially diluted 3-fold in DMSO to obtain an eight-point dilution curve with final compound concentrations and test compounds added. After 72 h, 10 μL CCK-8 dye was added in each well and the cells were incubated for 2–4 h. […] was measured at 450 nm. Dose response curves were analyzed in GraphPad Prism 8.

Parental HCT116 cells = experiment: Cellular antiproliferation assay (CCK8), parental HCT116; format: cell-based; conditions: Homo sapiens, HCT-116, 72 h, mean ± SD
[2] = system: HCT116 MTAP-deleted xenograft tumor; format: in vivo; conditions: for tumor growth inhibition (TGI): 30 mg/kg orally q.d. for 19 days; for tumor growth inhibition (TGI) / T/C (%) relative tumor proliferation rate: BALB/c nude mice, HCT116 MTAP−/− xenograft; for T/C (%) relative tumor proliferation rate / Tumor volume / Histopathological analysis (H&E staining) of tumor tissues: 30 mg/kg orally q.d.; for Tumor volume: mean ± SD, at end of study; for Histopathological analysis (H&E staining) of tumor tissues: xenograft tumor tissue
Protocol: The antitumor efficacy of compound 17 was evaluated in female BALB/c nude mice using a standardized tumor xenotransplantation model. Animals were maintained under specific-pathogen-free (SPF) conditions, and all experimental procedures adhered to institutional animal care protocols approved by the Institute of Radiation Medicine, the Chinese Academy of Medical Sciences, and Peking Union Medical College, complying with national guidelines for humane treatment. For tumor induction, 2 × 10^6 HCT-116 MTAP^−/− cells suspended in PBS were subcutaneously implanted into the right hind flank. Following a 7-day engraftment period, mice were stratified into three cohorts (n = 5/group) via block randomization performed by an independent researcher to minimize selection bias. Compound 17 was administered orally at 30 mg/kg once daily, using 5% DMSO + 10% Solutol HS-15 + 85% saline as the vehicle solution. The positive control AG-270 was dosed at the same regimen (30 mg/kg, orally, once daily) with identical vehicle composition. Tumor progression was monitored every other day through digital caliper measurements, with volumes calculated using the ellipsoid approximation formula: V = 0.5 × length × width^2.

| Compound | Maximum Inhibition (%) (MAT2A) | IC50 (MAT2A) | IC50 [1] [µM] | other results |
| --- | --- | --- | --- | --- |
| COc1ccc(NC(=O)c2ccc3scnc3c2)cc1 [Compound 15, N-(4-Methoxyphenyl)benzo[D]thiazole-5-carboxamide] | 80 | 0.91 ± 0.09 µM | > 100 | IC50 (MTAP−/− HCT116 cells): 2.2 ± 0.1 µM; IC50 (Parental HCT116 cells): > 10 µM |
| COc1ccc(NC(=O)c2cccc(N3CCCCC3)c2)cc1 [Compound 18, N-(4-Methoxyphenyl)-3-(piperidin-1-Yl)benzamide] | 72 | 0.78 ± 0.15 µM | > 100 | – |
| CN(C)c1nc(=O)n(-c2ccccc2)c2cc(Cl)ccc12 [6 (AZ-28), AZ-28, reference compound] | – | – | – | IC50 (MTAP−/− HCT116 cells): 0.35 ± 0.13 µM; IC50 (Parental HCT116 cells): 1.9 ± 0.2 µM |
| COc1ccc(NC(=O)c2cccc(-n3cccc3)c2)cc1 [Compound 17, N-(4-Methoxyphenyl)-3-(1H-pyrrol-1-Yl)benzamide] | 84 | 0.43 ± 0.06 µM | > 100 | tumor growth inhibition (TGI) [2]: 58.4%; T/C (%) relative tumor proliferation rate [2]: 44.4%; Tumor volume [2]: 659.9 ± 100.2 mm3; Histopathological analysis (H&E staining) of tumor tissues [2]: reduced cellular proliferation; IC50 (MTAP−/− HCT116 cells): 1.4 ± 0.3 µM; IC50 (Parental HCT116 cells): > 10 µM |
| Cn1cc(C(=O)Nc2ccc3c(c2)OCO3)c2ccccc21 [Compound 14] | – | – | > 100 | MAT2A inhibitory activity (in words) (MAT2A): completely lost its binding affinity; also recorded: abolished activity entirely |
| CCOC(=O)c1[nH]c2c(c1Cc1ccccc1OC)C(=O)CC(c1ccc(OC)cc1)C2 (centres unmarked) [Compound A10] | 65 | 4.6 ± 0.3 µM | 55.6 ± 7.8 | – |
| CCOC(=O)c1[nH]c2c(c1Cc1ccccc1)C(=O)CC(C)(C)C2 [Compound 10] | – | – | > 100 | MAT2A inhibitory activity (in words) (MAT2A): no detectable activity; also recorded: inactive |
| CCOC(=O)c1[nH]c2c(c1-c1ccccc1)C(=O)CC(c1ccccc1)C2 (centres unmarked) [Compound 8, Ethyl 4-Oxo-3,6-diphenyl-4,5,6,7-tetrahydro-1H-indole-2-carboxylate] | 47 | 6.8 ± 0.2 µM | > 100 | – |
| CCOC(=O)c1[nH]c2c(c1Cc1ccccc1)C(=O)CC(c1ccccc1)C2 (centres unmarked) [Compound 9, Ethyl 3-Benzyl-4-oxo-6-phenyl-4,5,6,7-tetrahydro-1H-indole-2-carboxylate] | – | – | > 100 | MAT2A inhibitory activity (in words) (MAT2A): no detectable activity; also recorded: inactive |
| CCn1cc(C(=O)Nc2ccc(OC)cc2)c2cccnc21 [Compound 12] | 86 | 2.9 ± 0.2 µM | > 100 | – |
| COc1ccc(NC(=O)c2cccc3ncsc23)cc1 [Compound 16, N-(4-Methoxyphenyl)benzo[D]thiazole-7-carboxamide] | – | – | > 100 | MAT2A inhibitory activity (in words) (MAT2A): complete loss of binding affinity; also recorded: abolished activity entirely |
| CCOC(=O)c1c(C)c(C(=O)Nc2ccc(OC)cc2)c(C)n1C [Compound 11] | – | 15.6 ± 3.1 µM | > 100 | – |
| COc1ccc(-c2c(Nc3ccccn3)[nH]c3c(C4=CCCCC4)c(-c4ccccc4)nn3c2=O)cc1 [AG-270, reference compound] | – | – | – | tumor growth inhibition (TGI) [2]: 80.4%; T/C (%) relative tumor proliferation rate [2]: 22.9%; Tumor volume [2]: 351.9 ± 96.1 mm3; Histopathological analysis (H&E staining) of tumor tissues [2]: reduced cellular proliferation |
| COc1ccc(NC(=O)c2cn(C)c3ncccc23)cc1F [Compound A11] | 76 | 4.6 µM and 2.5 µM | > 100 | IC50 (MTAP−/− HCT116 cells): 6 ± 0.4 µM; IC50 (Parental HCT116 cells): > 10 µM |
| COc1ccc(NC(=O)c2cn(C)c3ccccc23)cc1 [Compound 13, N-(4-Methoxyphenyl)-1-methyl-1H-indole-3-carboxamide] | 82 | 2.1 ± 0.6 µM | > 100 | – |
